This experiment addresses T1, human mGluR5a receptor (Homo sapiens, UniProt P41594).
T1 construct: cDNA subcloned into pcDNA3.1(-)
Nature of the experiment: Cell-based functional Ca2+ mobilization assay (FDSS), potentiation of glutamate EC20 response. The following applies: for pEC50 / EC50: HEK cells transfected with human mGluR5 (H10H or H12H), in presence of EC20 glutamate; for EC50: read-out: EC50; for Emax (%) / Emax: maximum % effect in concentration-response curve, as percent of response to maximally effective glutamate. The method, then: Human embryonic kidney (HEK) cells transfected with rat mGluR5 were plated in clear bottom assay plates for assay in a Functional Drug Screening System (FDSS). In the alternative assay, HEK cells transfected with human mGluR5 were plated for assay in the FDSS. In some cases the HEK cells transfected with human mGluR5 were the H10H cell line. Alternatively, the HEK cells transfected with human mGluR5 were the H12H cell line. […] The cells were loaded with a Ca^2+-sensitive fluorescent dye (e.g., Fluo-4), and the plates were washed and placed in the FDSS instrument. After establishment of a fluorescence baseline for twelve seconds, the compounds of the present invention were added to the cells, and the response in cells was measured. Alternatively, in various further aspects, after establishment of a fluorescence baseline for about three seconds, the compounds of the present invention were added to the cells, and the response in cells was measured. Five minutes later, an mGluR5 agonist (e.g., glutamate, 3,5-dihydroxyphenylglycine, or quisqualate) was added to the cells, and the response of the cells was measured.
The above described assay operated in two modes. In the first mode, a range of concentrations of the present compounds were added to cells, followed by a single fixed concentration of agonist. If a compound acted as a potentiator, an EC50 value for potentiation and a maximum extent of potentiation by the compound at this concentration of agonist was determined by non-linear curve fitting. In the second mode, several fixed concentrations of the present compounds were added to various wells on a plate, followed by a range of concentrations of agonist for each concentration of present compound; the EC50 values for the agonist at each concentration of compound were determined by non-linear curve fitting. A decrease in the EC50 value of the agonist with increasing concentrations of the present compounds (a leftward shift of the agonist concentration-response curve) is an indication of the degree of mGluR5 potentiation at a given concentration of the present compound. An increase in the EC50 value of the agonist with increasing concentrations of the present compounds (a rightward shift of the agonist concentration-response curve) is an indication of the degree of mGluR5 antagonism at a given concentration of the present compound. The second mode also indicates whether the present compounds also affect the maximum response to mGluR5 to agonists.
The mGluR5 activity was determined using the metabotropic glutamate receptor activity assays in human embryonic kidney cells as described herein, wherein the human embryonic kidney cells were transfected with human mGluR5. The compounds in Table 1 were synthesized with methods identical or analogous to those shown herein. The requisite starting materials were commercially available, described in the literature, or readily synthesized by one skilled in the art of organic synthesis. The compound number given in Table I corresponds to the compound number in Table II and the structure given therein.
Human mGluR5a cDNA in pCMV6-XL6 mammalian expression plasmid was purchased from OriGene Technologies, Inc. (catalogue number SC326357) and subcloned into pcDNA3.1(−). Human embryonic kidney (HEK) 293A cells were then transfected with human mGluR5a pcDNA3.1(−) using LipofectAmine-2000 (Invitrogen) and monoclones were selected and tested for functional response using a Ca^2+ mobilization assay. Monoclones were named for the species (“H” for human) plus the location on the plate (e.g. “10H”).
HEK cells transfected with the human mGluR5a receptor (H10H or H12H cell line) were plated at 15,000 cells/well in clear-bottomed poly-D-lysine-coated assay plates (BD Falcon) in glutamate-glutamine-free growth medium and incubated overnight at 37° C. and 5% CO2.
In general terms: A change in cytosolic calcium serves as a functional read-out for many receptors and channels.

This note sets out measurements from patent US8592422B2, “Bicyclic triazole and pyrazole lactams as allosteric modulators of mGluR5 receptors” (Vanderbilt University, priority 2010, dated 2013).

T1 sequence (P41594 21-1180 isoform P41594-2 limits assumed): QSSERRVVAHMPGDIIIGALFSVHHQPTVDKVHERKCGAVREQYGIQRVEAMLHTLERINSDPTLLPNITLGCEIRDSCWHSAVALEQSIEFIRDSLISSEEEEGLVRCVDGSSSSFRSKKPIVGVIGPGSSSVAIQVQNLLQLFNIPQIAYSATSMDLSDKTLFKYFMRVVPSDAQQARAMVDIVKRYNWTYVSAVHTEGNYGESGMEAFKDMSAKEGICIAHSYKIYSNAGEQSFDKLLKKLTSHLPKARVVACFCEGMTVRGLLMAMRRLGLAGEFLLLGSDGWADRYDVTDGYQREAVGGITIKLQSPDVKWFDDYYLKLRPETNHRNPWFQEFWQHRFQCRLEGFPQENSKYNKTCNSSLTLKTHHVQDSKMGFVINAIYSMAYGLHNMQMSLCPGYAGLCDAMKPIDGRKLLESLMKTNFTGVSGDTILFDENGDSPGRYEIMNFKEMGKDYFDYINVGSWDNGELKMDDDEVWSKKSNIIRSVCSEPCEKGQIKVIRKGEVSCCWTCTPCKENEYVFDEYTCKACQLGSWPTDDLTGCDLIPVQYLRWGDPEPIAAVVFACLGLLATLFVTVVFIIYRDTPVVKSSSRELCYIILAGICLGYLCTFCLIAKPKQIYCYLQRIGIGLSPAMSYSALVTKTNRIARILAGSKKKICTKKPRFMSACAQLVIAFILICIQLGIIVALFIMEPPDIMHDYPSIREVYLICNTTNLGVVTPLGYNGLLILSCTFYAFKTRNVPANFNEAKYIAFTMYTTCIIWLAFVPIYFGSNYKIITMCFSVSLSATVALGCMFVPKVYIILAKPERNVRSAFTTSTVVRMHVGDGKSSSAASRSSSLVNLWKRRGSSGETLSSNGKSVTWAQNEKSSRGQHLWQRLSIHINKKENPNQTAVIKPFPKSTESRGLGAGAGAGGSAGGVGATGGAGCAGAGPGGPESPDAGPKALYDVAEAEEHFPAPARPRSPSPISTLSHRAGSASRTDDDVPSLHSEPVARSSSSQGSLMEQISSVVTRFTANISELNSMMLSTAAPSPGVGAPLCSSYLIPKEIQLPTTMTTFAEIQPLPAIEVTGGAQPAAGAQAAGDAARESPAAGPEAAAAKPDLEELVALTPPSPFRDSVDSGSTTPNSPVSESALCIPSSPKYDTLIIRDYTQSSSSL

In the case of `CN(C)c1ccc(F)c(N2CCn3nc(COc4ccccc4)cc3C2=O)n1` [Example 283], the pEC50 is reported as 7.39, the EC50 was determined as 41 nM and the “Emax (%)” value amounted to 77%.

Turning to `O=C1c2cc(COc3ccccc3)nn2CCN1c1ccc2nccnc2n1` [Example 373], the EC50 is > 10000 nM and the Emax was found to be 55%.

In the case of `CC1CN(c2ccc(F)cn2)C(=O)c2cc(COc3ccc(F)cc3)nn21` (racemic) [Example 237], the pEC50 is 6.70, the EC50 came out at 200 nM and the “Emax (%)” value is given as 52%.

`CN(C)c1nccnc1N1CCn2nc(COc3ccccc3)cc2C1=O` [Example 288]: the pEC50 was 6.40, the half-maximal effective concentration (EC50) was 398 nM and the “Emax (%)” value is 69%.

For the molecule `Cn1cc(N2CCn3nc(COc4ccccc4)cc3C2=O)cn1` [Example 320], the pEC50 is reported as <5.00, the EC50 was > 10000 nM and the “Emax (%)” value was found to be 61%.

Consider `Cc1ccncc1N1CCn2nc(COc3ccccc3)cc2C1=O` [Example 32], for which the pEC50 is on record as 6.13, the EC50 came out at 741 nM and the “Emax (%)” value is reported as 74%.

Turning to `COc1nc(N2CCn3nc(COc4ccccc4)cc3C2=O)ncc1C` [Example 97], the pEC50 amounted to 7.01, the EC50 was 98 nM and the “Emax (%)” value turned out to be 68%.

In the case of `O=C1c2cc(COc3ccccc3)nn2CCN1c1cccc(Cl)n1` [Example 365], the pEC50 is on record as 7.40, the EC50 came out at 40 nM and the “Emax (%)” value turned out to be 73%.

Regarding `Cc1ccnc(OCc2cc3n(n2)CCN(c2ccc(F)cc2)C3=O)n1` [Example 186], the pEC50 was <4.52, the EC50 is > 30200 nM and the “Emax (%)” value came to 30%.

As for `Cc1ccnc(N2CCn3nc(COc4ccccc4)cc3C2=O)n1` [Example 82], the pEC50 is 5.81, the EC50 amounted to 1550 nM and the “Emax (%)” value is reported as 61%.

For the molecule `COC[C@@H]1Cn2nc(COc3ccccc3)cc2C(=O)N1c1ccc(F)cc1` [Example 270], the half-maximal effective concentration (EC50) was > 10000 nM and the maximum response (Emax) worked out at 39%.

Consider `Cc1nc(N2CCn3nc(COc4ccccn4)cc3C2=O)ccc1F` [Example 205], for which the pEC50 is 6.41, the EC50 worked out at 389 nM and the “Emax (%)” value stood at 55%.

`O=C1c2c(Cl)c(COc3ccccc3)nn2CCN1CC1CC1` [Example 259]: the pEC50 is <4.52, the EC50 is > 30200 nM and the “Emax (%)” value turned out to be 14%.

Take `COc1nccc(N2CCn3nc(COc4ccc(F)cc4)cc3C2=O)n1` [Example 227]: the pEC50 is 6.59, the EC50 was 260 nM and the “Emax (%)” value worked out at 62%.

As to `CC(C)CN1CCn2nc(COc3ccccc3)cc2C1=O` [Example 26], the pEC50 is 6.98, the EC50 stood at 105 nM and the “Emax (%)” value turned out to be 75%.

As to `O=C1c2cc(COc3ccccc3O)nn2CCN1c1ccc(F)cn1` [Example 377], the pEC50 is given as <5.00, the EC50 was > 10000 nM and the “Emax (%)” value was 71%.

With `CC(Oc1ccccc1)c1cc2n(n1)CCN(CC1CC1)C2=O` (racemic) [Example 257], the negative-log EC50 (pEC50) is recorded as <4.52, the EC50 was > 30200 nM and the “Emax (%)” value is given as 25%.

With `O=C1c2cc(COc3ccccc3)nn2C(CO)CN1c1ccc(F)cc1` (racemic) [Example 263], the pEC50 was determined as 5.92, the EC50 stood at 1200 nM and the “Emax (%)” value amounted to 87%.

As to `CC1Cn2nc(COc3ccccc3)cc2C(=O)N1c1ccc(F)cn1` (stereo not shown) [Example 139], the pEC50 is reported as 6.05, the EC50 turned out to be 891 nM and the “Emax (%)” value came out at 43%.

Regarding `COc1cc(N2CCn3nc(COc4ccccc4)cc3C2=O)ncn1` [Example 351], the pEC50 is 6.59, the EC50 was determined as 260 nM and the “Emax (%)” value was found to be 66%.

Take `N#Cc1cccc(OCc2cc3n(n2)CCN(CC2CC2)C3=O)c1` [Example 164]: the negative-log EC50 (pEC50) is recorded as <4.52, the EC50 was > 30200 nM and the “Emax (%)” value amounted to 28%.

Consider `Cc1cccnc1N1CCn2nc(COc3ccccc3)cc2C1=O` [Example 30], for which the EC50 came out at 537 nM and the Emax was determined as 75%.

For `Cc1cccc(N2CCn3nc(COc4ccccc4)cc3C2=O)c1C` [Example 56], the pEC50 was 7.62, the EC50 turned out to be 24 nM and the “Emax (%)” value was found to be 69%.

As to `COc1nccc(N2CCn3nc(COc4ccccc4)cc3C2=O)n1` [Example 110], the pEC50 turned out to be 6.70, the EC50 amounted to 200 nM and the “Emax (%)” value came to 68%.

As for `O=C1c2cc(COc3ccccc3)nn2CCN1c1ccc2cccnc2c1` [Example 360], the EC50 stood at 190 nM and the Emax was 66%.

In the case of `Cc1cc(N2CCn3nc(COc4ccccc4)cc3C2=O)ccc1F` [Example 52], the pEC50 stood at 7.58, the concentration giving a half-maximal response (EC50) stood at 26 nM and the “Emax (%)” value amounted to 68%.

Turning to `COc1cc(N2CCn3nc(COc4ccccc4)cc3C2=O)ccc1F` [Example 51], the pEC50 is on record as 7.26, the EC50 came to 55 nM and the “Emax (%)” value worked out at 61%.

Consider `COc1ccc(N2CCn3nc(COc4ccccc4)cc3C2=O)cc1F` [Example 58], for which the pEC50 amounted to 6.92, the EC50 came to 120 nM and the “Emax (%)” value turned out to be 58%.

Take `O=C1c2cc(COc3ccccc3)nn2CCN1c1ccc(F)cc1` [Example 6]: the pEC50 is 7.14, the concentration giving a half-maximal response (EC50) is 72 nM and the “Emax (%)” value was 82%.

On to `Cc1ccc(N2CCn3nc(COc4ccccc4)cc3C2=O)nc1N(C)C` [Example 292], for which the pEC50 was 7.47, the EC50 amounted to 34 nM and the “Emax (%)” value amounted to 66%.

For `O=C1c2cc(COc3ccccc3)nn2C(F)CN1c1ccc(F)cc1` (single isomer, unassigned) [Example 272], the pEC50 was found to be 7.04, the EC50 came to 91 nM and the “Emax (%)” value was found to be 69%.

`O=C1c2cc(COc3ccccc3)nn2CCN1c1cnc2cnccn12` [Example 374]: the EC50 was 3400 nM and the Emax was determined as 72%.

For the molecule `CC1Cn2nc(COc3cccc(F)c3)cc2C(=O)N1c1ccc(F)cc1` (stereo not shown) [Example 244], the pEC50 was 7.25, the concentration giving a half-maximal response (EC50) was 56 nM and the “Emax (%)” value is 78%.

Regarding `COc1cncc(N2CCn3nc(COc4ccccc4)cc3C2=O)n1` [Example 112], the pEC50 was determined as 6.98, the EC50 came out at 105 nM and the “Emax (%)” value was determined as 69%.

Consider `Cc1cccc(N2CCn3nc(COc4ccccn4)cc3C2=O)c1` [Example 216], for which the pEC50 turned out to be 6.39, the EC50 was found to be 410 nM and the “Emax (%)” value is reported as 63%.

Take `COc1ncc(C)cc1N1CCn2nc(COc3ccccc3)cc2C1=O` [Example 298]: the pEC50 was determined as 6.58, the EC50 is 260 nM and the “Emax (%)” value is 73%.

Take `O=C1c2cc(COc3ccccc3)nn2CC(CO)N1c1ccc(F)cc1` (stereo not shown) [Example 265]: the pEC50 amounted to 5.65, the EC50 is 2240 nM and the “Emax (%)” value amounted to 60%.

One may read the pEC50 as −log10 of the EC50, conventionally taken in molar units. Usually EC50 stands for the concentration at which the effect is half-maximal. In general, Emax refers to the maximal effect, on the per cent scale that the assay sets.
